System: 997537-175-T-J1-PDC complex spheroid viability
Assay: Anticancer human tumor 997537-175-T-J1-PDC patient-derived colon adenocarcinoma cell line growth inhibition [GQUAD]
Details: for IC50: curve of first compound; for viability, T/C: stronger effect = lower value
From the text: DNA G-quadruplex Stabilizer Agents in Combinations in Complex Spheroids
A high-throughput screen of multi-cell type tumor spheroids was designed to identify active combinations of DNA G-quadruplex stabilizer agents and targeted small molecules. Complex spheroids include a stromal component modeled by human endothelial cells (HUVEC) and fibroblasts modeled by human mesenchymal stem cells (MSCs). The concentration ranges selected for each drug and investigational agent were based upon clinically achievable concentrations if the clinical Cmax of the agent was known.
Compounds. The drugs and investigational agents: pidnarulex (CX-5461; NSC782164), APTO-253 (NSC789042), BRACO-19 (NSC847499), peposertib (NSC802822), ceralasertib (NSC780249), elimusertib (NSC800525), camonsertib (NSC841442), AZD-1390 (NSC803789), olaparib (NSC753686), talazoparib (NSC767125), ART-558 (NSC835418), sotorasib (NSC818433), MRTX-1133 (NSC836407), SN-38 (NSC673596), topotecan (NSC609699), etoposide (NSC141540), doxorubicin (NSC123127), gemcitabine (NSC613327), 5-fluorouracil (NSC19893), paclitaxel (NSC125973), vemurafenib (NSC761431), panobinostat (NSC761190), R-306465 (JNJ-16241199; NSC773264), adavosertib (NSC754352), TP-3654 (NSC805149), carboplatin (NSC241240), KSQ-4279 (NSC840948), and staurosporine (NSC755774) were obtained from the National Cancer Institute (NCI) Developmental Therapeutics Program Chemical Repository (34). The FDA-approved anticancer drug set is available from the NCI Developmental Therapeutics Program. […] The stock solutions were prepared in dimethyl sulfoxide (DMSO, Sigma-Aldrich, St. Louis, MO, cat. D2650) at 800-fold the tested concentration and stored at -70 degrees C prior to their use. All drugs and investigational agents were tested over a range starting from a high concentration at or near the clinical Cmax and decreasing in half-log increments. If the clinical Cmax for an agent had not been determined, the highest concentration tested was 10 microM.
2.3 Cell Culture. All cells were maintained in an incubator at 37 degrees C and 5% CO2 with 95% humidity. The PDC lines were cultured according to standard operating procedures established by the NCI PDMR. All PDCs were thawed and cultured in Matrigel-coated flasks prepared with a working solution of 1X Ham's F-12 nutrient mix, without supplementation (Invitrogen, cat. 11765054), 100 U/mL penicillin-streptomycin (Invitrogen, cat. 15140122), and 2.5% Matrigel (Corning Inc., cat. 354248) for the first three passages. The 857933-349-R-J2-PDC line was cultured in 6C/Colon 1B media, which includes advanced DMEM/F-12 (Thermo Fisher Scientific, cat. 12634028), 10 mM HEPES (Thermo Fisher Scientific, cat. 15630080), 1X GlutaMAX supplement (Thermo Fisher Scientific, cat. 35050061), 0.1 mg/mL primocin (InvivoGen, cat. ant-pm-2), 10% defined fetal bovine serum, heat inactivated (HyClone Laboratories Inc., cat. SH30070.03HI), 50% L-WRN conditioned media (ATCC, cat. CRL-3276), 1.25 mM N-Acetyl-L-cysteine (Sigma-Aldrich, cat. A9165), 10 mM nicotinamide (Sigma-Aldrich, cat. N0636), 1X B-27 supplement (Thermo Fisher Scientific, cat. 17504044), 1X N-2 supplement (Thermo Fisher Scientific, cat. 17502048), 10 microM Y-27632 dihydrochloride (Tocris Bioscience, cat. 1254), and 50 ng/mL human EGF recombinant protein (Thermo Fisher Scientific, cat. PHG0311). The 485176-168-R4-J1-PDC line was cultured in Panc media, which includes all 6C/Colon 1B media components plus 100 ng/mL human FGF-10 (Thermo Fisher Scientific, cat. 100-26), 500 nM SB-431542 (Selleckchem, cat. S1067), and gastrin (Tocris, cat. 3006).
[…]
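Note: spheroids exposed to the agents for 7 days.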
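Throughout, for viability, T/C: 100% = DMSO vehicle control viability.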

Work on CC1COCCN1c1cc(C2(S(C)(=N)=O)CC2)nc(-c2ccnc3[nH]ccc23)n1 (configuration not stated) + Cc1[nH]c2ccc(F)cc2c1-c1nc2c3cccnc3c3ncccc3c2[nH]1 yielded an IC50 (second compound 0.0316 µM) of 9.53 µM, an IC50 (second compound 0.1 µM) of 6.25 µM and an IC50 (second compound 0.316 µM) of over 10 µM. The IC50 (second compound 1 µM) was over 10 µM, the IC50 (second compound 3.16 µM) was 6.51 µM and the IC50 (second compound 10 µM) was over 10 µM. It also gave a viability, T/C (second compound 0.0316 µM, first compound 0.0316 µM) of 96.7%, a viability, T/C (second compound 0.0316 µM, first compound 0.1 µM) of 83.8% and a viability, T/C (second compound 0.0316 µM, first compound 0.316 µM) of 76.3%. It also gave a viability, T/C (second compound 0.0316 µM, first compound 1 µM) of 71.9%, a viability, T/C (second compound 0.0316 µM, first compound 3.16 µM) of 62.9% and a viability, T/C (second compound 0.0316 µM, first compound 10 µM) of 47.5%. It also gave a viability, T/C (second compound 0.1 µM, first compound 0.0316 µM) of 95.8%, a viability, T/C (second compound 0.1 µM, first compound 0.1 µM) of 86.2% and a viability, T/C (second compound 0.1 µM, first compound 0.316 µM) of 82.4%. The viability, T/C (second compound 0.1 µM, first compound 1 µM) was 77.6%, the viability, T/C (second compound 0.1 µM, first compound 3.16 µM) was 70.3% and the viability, T/C (second compound 0.1 µM, first compound 10 µM) was 37.4%. The viability, T/C (second compound 0.316 µM, first compound 0.0316 µM) was 107%, the viability, T/C (second compound 0.316 µM, first compound 0.1 µM) was 73.8% and the viability, T/C (second compound 0.316 µM, first compound 0.316 µM) was 69.7%. It also gave a viability, T/C (second compound 0.316 µM, first compound 1 µM) of 70%, a viability, T/C (second compound 0.316 µM, first compound 3.16 µM) of 62.3% and a viability, T/C (second compound 0.316 µM, first compound 10 µM) of 49.3%. It also gave a viability, T/C (second compound 1 µM, first compound 0.0316 µM) of 80.3%, a viability, T/C (second compound 1 µM, first compound 0.1 µM) of 46.2% and a viability, T/C (second compound 1 µM, first compound 0.316 µM) of 76.8%. The viability, T/C (second compound 1 µM, first compound 1 µM) was 94%, the viability, T/C (second compound 1 µM, first compound 3.16 µM) was 72.5% and the viability, T/C (second compound 1 µM, first compound 10 µM) was 60.6%. The viability, T/C (second compound 3.16 µM, first compound 0.0316 µM) was 59.7%, the viability, T/C (second compound 3.16 µM, first compound 0.1 µM) was 79.8% and the viability, T/C (second compound 3.16 µM, first compound 0.316 µM) was 66.1%. The viability, T/C (second compound 3.16 µM, first compound 1 µM) was 55.8%, the viability, T/C (second compound 3.16 µM, first compound 3.16 µM) was 71% and the viability, T/C (second compound 3.16 µM, first compound 10 µM) was 40.4%. The viability, T/C (second compound 10 µM, first compound 0.0316 µM) was 63.7%, the viability, T/C (second compound 10 µM, first compound 0.1 µM) was 76.2% and the viability, T/C (second compound 10 µM, first compound 0.316 µM) was 72.2%. For the same compound, the viability, T/C (second compound 10 µM, first compound 1 µM) was 71.2%, the viability, T/C (second compound 10 µM, first compound 3.16 µM) was 64.5% and the viability, T/C (second compound 10 µM, first compound 10 µM) was 74.8%.

Source: PubChem BioAssay AID2060487 (Molecular Pharmacology Branch, DTP, NCI, 2025)
